Laboratory results as given in the supplement of paper PMC8558673.
± gives the standard deviation of the averaged measurements.

Tested on: Escherichia coli K12 ER1821
Test: log10 surviving fraction N/N0 (CFU/mL relative to untreated control) (log_unit); higher = more bacterial survival (less inactivation)
Protocol: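 E. coli K12 ER1821 (mid-exponential, washed in 250 mM sucrose) was exposed to antibiotic at MIC, 3x, 10x or 30x MIC, given a single 1-ms pulse of 0-20 kV/cm, and incubated with the antibiotic at room temperature for <=1 min, 60 min, 160 min or 24 h before dilution. Survivors were counted as CFU by drop plating after overnight growth at 37 C; the value is log10(N/N0) relative to the untreated control (no antibiotic, no pulse), with 3 replicates on different days.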

CN(C)[C@@H]1C(O)=C(C(N)=O)C(=O)[C@@]2(O)C(O)=C3C(=O)c4c(O)cccc4[C@@](C)(O)[C@H]3C[C@@H]12 [tetracycline]
log10 surviving fraction N/N0
Details	antibiotic concentration 2 ug/mL	antibiotic concentration 6 ug/mL	antibiotic concentration 20 ug/mL	antibiotic concentration 60 ug/mL
electric pulse amplitude (kV/cm, single 1-ms pulse): 0, post-pulse incubation time: 24 h	-0.417 ± 0.088	-0.475 ± 0.12	-0.573 ± 0.19	-1.45 ± 0.4
electric pulse amplitude (kV/cm, single 1-ms pulse): 0, post-pulse incubation time: 60 min	-0.108 ± 0.059	-0.125 ± 0.075	-0.116 ± 0.12	-0.361 ± 0.13
electric pulse amplitude (kV/cm, single 1-ms pulse): 0, post-pulse incubation time: 160 min	-0.0521 ± 0.044	-0.172 ± 0.11	-0.241 ± 0.039	-0.461 ± 0.24
electric pulse amplitude (kV/cm, single 1-ms pulse): 0, post-pulse incubation time: <=1 min	-0.0586 ± 0.051	-0.2 ± 0.12	-0.136 ± 0.1	-0.26 ± 0.19
electric pulse amplitude (kV/cm, single 1-ms pulse): 5, post-pulse incubation time: 24 h	-0.436 ± 0.19	-0.518 ± 0.25	-0.877 ± 0.35	-2.42 ± 0.75
electric pulse amplitude (kV/cm, single 1-ms pulse): 5, post-pulse incubation time: 60 min	-0.307 ± 0.18	-0.307 ± 0.11	-0.303 ± 0.11	-0.636 ± 0.065
electric pulse amplitude (kV/cm, single 1-ms pulse): 5, post-pulse incubation time: 160 min	-0.235 ± 0.033	-0.282 ± 0.076	-0.345 ± 0.044	-0.84 ± 0.19
electric pulse amplitude (kV/cm, single 1-ms pulse): 5, post-pulse incubation time: <=1 min	-0.0914 ± 0.14	-0.264 ± 0.18	-0.276 ± 0.28	-0.618 ± 0.28
electric pulse amplitude (kV/cm, single 1-ms pulse): 10, post-pulse incubation time: 24 h	-0.65 ± 0.17	-0.762 ± 0.33	-1.8 ± 1.2	-3.46 ± 0.28
electric pulse amplitude (kV/cm, single 1-ms pulse): 10, post-pulse incubation time: 60 min	-0.769 ± 0.21	-0.825 ± 0.09	-1.02 ± 0.17	-1.72 ± 0.16
electric pulse amplitude (kV/cm, single 1-ms pulse): 10, post-pulse incubation time: 160 min	-0.827 ± 0.15	-0.925 ± 0.08	-1.11 ± 0.65	-2.1 ± 0.2
electric pulse amplitude (kV/cm, single 1-ms pulse): 10, post-pulse incubation time: <=1 min	-0.389 ± 0.17	-0.48 ± 0.32	-0.656 ± 0.44	-1.39 ± 0.28
electric pulse amplitude (kV/cm, single 1-ms pulse): 15, post-pulse incubation time: 24 h	-1 ± 0.26	-1.48 ± 0.42	-2.97 ± 0.83	-4.05 ± 0.41
electric pulse amplitude (kV/cm, single 1-ms pulse): 15, post-pulse incubation time: 60 min	-1.45 ± 0.26	-1.53 ± 0.19	-1.82 ± 0.21	-2.48 ± 0.15
electric pulse amplitude (kV/cm, single 1-ms pulse): 15, post-pulse incubation time: 160 min	-1.46 ± 0.33	-1.63 ± 0.21	-1.99 ± 0.35	-2.74 ± 0.24
electric pulse amplitude (kV/cm, single 1-ms pulse): 15, post-pulse incubation time: <=1 min	-0.764 ± 0.32	-0.971 ± 0.36	-1.23 ± 0.49	-2.06 ± 0.29
electric pulse amplitude (kV/cm, single 1-ms pulse): 20, post-pulse incubation time: 24 h	-1.49 ± 0.25	-1.98 ± 0.65	-3.9 ± 0.48	-4.78 ± 0.42
electric pulse amplitude (kV/cm, single 1-ms pulse): 20, post-pulse incubation time: 60 min	-1.99 ± 0.32	-2.02 ± 0.21	-2.25 ± 0.32	-3.13 ± 0.29
electric pulse amplitude (kV/cm, single 1-ms pulse): 20, post-pulse incubation time: 160 min	-1.97 ± 0.35	-2.19 ± 0.23	-2.44 ± 0.39	-3.57 ± 0.25
electric pulse amplitude (kV/cm, single 1-ms pulse): 20, post-pulse incubation time: <=1 min	-1.26 ± 0.25	-1.3 ± 0.48	-1.57 ± 0.41	-2.34 ± 0.29
